# In ChEMBL document CHEMBL1143342, “Death receptor 5 targeting activity-guided isolation of isoflavones from Millettia brandisiana and Ardisia colorata and evaluation of ability to induce TRAIL-mediated apoptosis” (2009):
# The source made the active and inactive calls. The calls are words filed in the database; no cut-off is given here.
# Columns and labels:
# AGS [1] = assay: Induction of DR5 protein expression in TRAIL-resistant human AGS cells after 24 hrs by Western blot analysis; assay type: functional, cell-based
# AGS [2] = assay: Sensitization of TRAIL-induced apoptosis in TRAIL-resistant human AGS cells assessed as accumulation at sub-G1 phase at 60 uM after 24 hrs using annexin-V-FITC/propidium iodide staining by flow cytometry in presence of DR5/Fc chimeric protein; assay type: functional, cell-based
# AGS [3] = assay: Induction of apoptosis in TRAIL-resistant human AGS cells assessed as late apoptotic cells at 60 uM after 24 hrs using annexin-V-FITC/propidium iodide staining by flow cytometry; assay type: functional
# AGS [4] = assay: Sensitization of TRAIL-induced apoptosis in TRAIL-resistant human AGS cells assessed as late apoptotic cells at 50 uM after 24 hrs using annexin-V-FITC/propidium iodide staining by flow cytometry; assay type: functional
# AGS [5] = assay: Sensitization of TRAIL-induced apoptosis in TRAIL-resistant human AGS cells assessed as increase in DR5 expression; assay type: functional, cell-based
# AGS [6] = assay: Sensitization of TRAIL-induced apoptosis in TRAIL-resistant human AGS cells assessed as late apoptotic cells at 40 uM after 24 hrs using annexin-V-FITC/propidium iodide staining by flow cytometry; assay type: functional
# AGS [7] = assay: Induction of apoptosis in TRAIL-resistant human AGS cells assessed as early apoptotic cells at 60 uM after 24 hrs using annexin-V-FITC/propidium iodide staining by flow cytometry; assay type: functional
# AGS [8] = assay: Induction of apoptosis in TRAIL-resistant human AGS cells assessed as late apoptotic cells at 50 uM after 24 hrs using annexin-V-FITC/propidium iodide staining by flow cytometry; assay type: functional
# AGS [9] = assay: Induction of TRAIL-induced apoptosis in TRAIL-resistant human AGS cells assessed as increase in caspase 3/7 activity after 24 hrs by luminescence assay; assay type: functional, cell-based
# AGS [10] = assay: Sensitization of TRAIL-induced apoptosis in TRAIL-resistant human AGS cells assessed as early apoptotic cells at 50 uM after 24 hrs using annexin-V-FITC/propidium iodide staining by flow cytometry; assay type: functional
# AGS [11] = assay: Induction of apoptosis in TRAIL-resistant human AGS cells assessed as late apoptotic cells at 40 uM after 24 hrs using annexin-V-FITC/propidium iodide staining by flow cytometry; assay type: functional
# AGS [12] = assay: Induction of TRAIL-induced apoptosis in TRAIL-resistant human AGS cells assessed as increase in caspase 8 activity after 12 hrs by luminescence assay; assay type: functional, cell-based
# AGS [13] = assay: Sensitization of TRAIL-induced apoptosis in TRAIL-resistant human AGS cells assessed as early apoptotic cells at 60 uM after 24 hrs using annexin-V-FITC/propidium iodide staining by flow cytometry; assay type: functional
# AGS [14] = assay: Sensitization of TRAIL-induced apoptosis in TRAIL-resistant human AGS cells assessed as early apoptotic cells at 40 uM after 24 hrs using annexin-V-FITC/propidium iodide staining by flow cytometry; assay type: functional
# AGS [15] = assay: Induction of apoptosis in TRAIL-resistant human AGS cells assessed as early apoptotic cells at 50 uM after 24 hrs using annexin-V-FITC/propidium iodide staining by flow cytometry; assay type: functional
# AGS [16] = assay: Sensitization of TRAIL-induced apoptosis in TRAIL-resistant human AGS cells assessed as late apoptotic cells at 60 uM after 24 hrs using annexin-V-FITC/propidium iodide staining assay; assay type: functional
# AGS [17] = assay: Induction of DR5 mRNA expression in TRAIL-resistant human AGS cells by RT-PCR; assay type: functional, cell-based
# AGS [18] = assay: Induction of apoptosis in TRAIL-resistant human AGS cells assessed as early apoptotic cells at 40 uM after 24 hrs using annexin-V-FITC/propidium iodide staining by flow cytometry; assay type: functional
# DLD-1 = assay: Induction of DR5 promoter activity in SacI gene expressing human DLD1 cells at 17.5 uM after 24 hrs by luminescence assay; assay type: functional
Compound,Activity (AGS [1]),Activity (AGS [2]),Activity (AGS [3]) [%],Activity (AGS [4]) [%],Activity (AGS [5]),Activity (AGS [6]) [%],Activity (AGS [7]) [%],Activity (AGS [8]) [%],Activity (AGS [9]),Activity (AGS [10]) [%],Activity (AGS [11]) [%],Activity (AGS [12]),Activity (AGS [13]) [%],Activity (AGS [14]) [%],Activity (AGS [15]) [%],Activity (AGS [16]) [%],Activity (AGS [17]),Activity (AGS [18]) [%],Activity (DLD-1)
COc1cc(-c2coc3c4c(cc(O)c3c2=O)OC(C)(C)C=C4)c(OC)cc1O,Dose-dependent effect,inactive,6.9,19.5,Active,12.9,17.4,3.9,Dose-dependent effect,16.3,5.6,Dose-dependent effect,23.4,12.1,15.2,44.1,Dose-dependent effect,9.6,
COc1ccc(-c2coc3cc(O)ccc3c2=O)c(O)c1 [XENOGNOSIN B],,,,,,,,,,,,,,,,,,,2.5
